{
  "source": "ChEMBL document CHEMBL6071182",
  "about": "“Design, Biological Characterization, and Discovery of Novel Cyclohexenyl Derivatives as Kinesin KIF18A Inhibitors for the Treatment of Ovarian Cancer” (ACS Med Chem Lett, 2024)",
  "key": {"[1]": {"assay": "Oral bioavailability in Beagle dog at 2 mg/kg", "format": "ADME, organism-based, Canis lupus familiaris", "conditions": "in vivo"}, "[2]": {"assay": "Cmax in Sprague-Dawley rat at 2 mg/kg, po and 1 mg/kg, iv", "format": "ADME, organism-based", "conditions": "in vivo"}, "[3]": {"assay": "Half life in Balb/c mouse at 10 mg/kg, po", "format": "ADME, organism-based", "conditions": "in vivo"}, "NCI-N87": {"test_system": "NCI-N87", "assay": "Antiproliferative activity against human NCI-N87 cells assessed as chemiluminescence measured after 4 days incubation by Celltiter Glo assay", "conditions": "NCI-N87, 96 h"}, "[4]": {"assay": "Permeability of compound across basolateral to apical side in human Caco-2 cells", "format": "ADME, cell-based", "conditions": "read-out: permeability"}, "[5]": {"assay": "Half life in Balb/c mouse at 30 mg/kg, po", "format": "ADME, organism-based", "conditions": "in vivo"}, "[6]": {"assay": "Cmax in Cynomolgus monkey at 2 mg/kg, po and 1 mg/kg, iv", "format": "ADME, organism-based, Macaca fascicularis", "conditions": "in vivo"}, "[7]": {"assay": "Cmax in ICR mouse at 2 mg/kg, po and 1 mg/kg, iv", "format": "ADME, organism-based", "conditions": "in vivo"}, "[8]": {"assay": "Plasma protein binding in monkey", "format": "ADME, cell-free, Macaca mulatta", "conditions": "rhesus monkey, read-out: PPB (converted)"}, "OVCAR-3 [9]": {"test_system": "OVCAR-3", "assay": "In vivo antiproliferative activity against human OVCAR-3 cells xenografted in po dosed nude Balc/c mouse tumor model assessed as reduction in tumor volume measured after 21 days", "format": "functional, organism-based", "conditions": "dose 10-20 mg/kg, time 21.0 day, TDE = time-dependent effect"}, "[10]": {"assay": "Plasma protein binding in dog", "format": "ADME, cell-free, Canis lupus familiaris", "conditions": "read-out: PPB (converted)"}, "[11]": {"assay": "Oral bioavailability in Sprague-Dawley rat at 2 mg/kg", "format": "ADME, organism-based", "conditions": "in vivo"}, "Cytochrome P450 3A4 [12]": {"molecular_target": "T1, Cytochrome P450 3A4 (Homo sapiens, UniProt P08684)", "T1 sequence (P08684 whole entry)": "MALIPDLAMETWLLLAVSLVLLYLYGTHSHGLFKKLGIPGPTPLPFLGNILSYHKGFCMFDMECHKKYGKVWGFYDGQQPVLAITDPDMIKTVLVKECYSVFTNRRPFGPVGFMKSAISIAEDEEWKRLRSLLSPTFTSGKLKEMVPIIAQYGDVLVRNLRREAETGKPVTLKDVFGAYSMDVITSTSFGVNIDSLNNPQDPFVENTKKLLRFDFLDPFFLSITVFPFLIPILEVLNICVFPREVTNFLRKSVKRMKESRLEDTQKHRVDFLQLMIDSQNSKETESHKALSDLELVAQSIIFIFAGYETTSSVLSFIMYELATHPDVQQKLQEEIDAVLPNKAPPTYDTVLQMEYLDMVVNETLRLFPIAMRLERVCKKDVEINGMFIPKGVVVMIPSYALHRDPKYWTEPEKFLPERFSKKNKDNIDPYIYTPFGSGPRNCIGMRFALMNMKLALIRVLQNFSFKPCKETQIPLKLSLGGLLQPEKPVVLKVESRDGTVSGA", "assay": "Inhibition of CYP3A4 (unknown origin) assessed as reduction in testosterone metabolism", "format": "ADME"}, "[13]": {"assay": "AUC in Balb/c mouse at 10 mg/kg, po", "format": "ADME, organism-based", "conditions": "in vivo"}, "[14]": {"assay": "AUC in Balb/c mouse at 30 mg/kg, po", "format": "ADME, organism-based", "conditions": "in vivo"}, "Cytochrome P450 3A4 [15]": {"molecular_target": "T1, Cytochrome P450 3A4", "assay": "Inhibition of CYP3A4 (unknown origin) assessed as reduction in midazolam metabolism", "format": "ADME"}, "[16]": {"assay": "Half life in dog liver microsomes", "format": "ADME, Canis lupus familiaris, Microsome"}, "[17]": {"assay": "Solubility in compound in FassIF", "format": "physicochemical"}, "[18]": {"assay": "Plasma protein binding in human", "format": "ADME, cell-free", "conditions": "read-out: PPB (converted)"}, "BXPC-3": {"test_system": "BXPC-3", "assay": "Antiproliferative activity against human BxPC-3 cells assessed as chemiluminescence measured after 4 days incubation by Celltiter Glo assay", "conditions": "BXPC-3, 96 h"}, "[19]": {"assay": "Half life in monkey liver microsomes", "format": "ADME, Macaca mulatta, Microsome", "conditions": "rhesus monkey"}, "[20]": {"assay": "Half life in ICR mouse at 2 mg/kg, po and 1 mg/kg, iv", "format": "ADME, organism-based", "conditions": "in vivo"}, "[21]": {"assay": "Oral bioavailability in Cynomolgus monkey at 2 mg/kg", "format": "ADME, organism-based, Macaca fascicularis", "conditions": "in vivo"}, "[22]": {"assay": "AUC in Beagle dog at 2 mg/kg, po and 1 mg/kg, iv", "format": "ADME, organism-based, Canis lupus familiaris", "conditions": "in vivo"}, "[23]": {"assay": "Half life in Sprague-Dawley rat at 2 mg/kg, po and 1 mg/kg, iv", "format": "ADME, organism-based", "conditions": "in vivo"}, "[24]": {"assay": "AUC in ICR mouse at 2 mg/kg, po and 1 mg/kg, iv", "format": "ADME, organism-based", "conditions": "in vivo"}, "[25]": {"assay": "Plasma protein binding in rat", "format": "ADME, cell-free", "conditions": "read-out: PPB (converted)"}, "[26]": {"assay": "Half life in Cynomolgus monkey at 2 mg/kg, po and 1 mg/kg, iv", "format": "ADME, organism-based, Macaca fascicularis", "conditions": "in vivo"}, "[27]": {"assay": "Half life in mouse liver microsomes", "format": "ADME, Microsome"}, "[28]": {"assay": "Solubility in compound in FessIF", "format": "physicochemical"}, "[29]": {"assay": "Plasma protein binding in mouse", "format": "ADME, cell-free", "conditions": "read-out: PPB (converted)"}, "[30]": {"assay": "Permeability of compound across apical to basolateral side in human Caco-2 cells", "format": "ADME, cell-based", "conditions": "read-out: permeability"}, "HCC1954": {"test_system": "HCC1954", "assay": "Antiproliferative activity against human HCC1954 cells assessed as chemiluminescence measured after 4 days incubation by Celltiter Glo assay", "conditions": "HCC1954, 96 h"}, "[31]": {"assay": "Half life in rat liver microsomes", "format": "ADME, Microsome"}, "[32]": {"assay": "Solubility in compound in FassGF", "format": "physicochemical"}, "[33]": {"assay": "Half life in Beagle dog at 2 mg/kg, po and 1 mg/kg, iv", "format": "ADME, organism-based, Canis lupus familiaris", "conditions": "in vivo"}, "[34]": {"assay": "AUC in Cynomolgus monkey at 2 mg/kg, po and 1 mg/kg, iv", "format": "ADME, organism-based, Macaca fascicularis", "conditions": "in vivo"}, "OVCAR-3 [35]": {"test_system": "OVCAR-3", "assay": "In vivo antiproliferative activity against human OVCAR-3 cells xenografted in nude Balc/c mouse tumor model assessed as tumor growth inhibition at 30 mg/kg, po measured after 21 days", "format": "functional", "conditions": "OVCAR-3, 504 h, time 21 day, read-out: TGI"}, "[36]": {"molecular_target": "Voltage-gated inwardly rectifying potassium channel KCNH2 (Homo sapiens, UniProt Q12809)", "sequence (Q12809 whole entry)": "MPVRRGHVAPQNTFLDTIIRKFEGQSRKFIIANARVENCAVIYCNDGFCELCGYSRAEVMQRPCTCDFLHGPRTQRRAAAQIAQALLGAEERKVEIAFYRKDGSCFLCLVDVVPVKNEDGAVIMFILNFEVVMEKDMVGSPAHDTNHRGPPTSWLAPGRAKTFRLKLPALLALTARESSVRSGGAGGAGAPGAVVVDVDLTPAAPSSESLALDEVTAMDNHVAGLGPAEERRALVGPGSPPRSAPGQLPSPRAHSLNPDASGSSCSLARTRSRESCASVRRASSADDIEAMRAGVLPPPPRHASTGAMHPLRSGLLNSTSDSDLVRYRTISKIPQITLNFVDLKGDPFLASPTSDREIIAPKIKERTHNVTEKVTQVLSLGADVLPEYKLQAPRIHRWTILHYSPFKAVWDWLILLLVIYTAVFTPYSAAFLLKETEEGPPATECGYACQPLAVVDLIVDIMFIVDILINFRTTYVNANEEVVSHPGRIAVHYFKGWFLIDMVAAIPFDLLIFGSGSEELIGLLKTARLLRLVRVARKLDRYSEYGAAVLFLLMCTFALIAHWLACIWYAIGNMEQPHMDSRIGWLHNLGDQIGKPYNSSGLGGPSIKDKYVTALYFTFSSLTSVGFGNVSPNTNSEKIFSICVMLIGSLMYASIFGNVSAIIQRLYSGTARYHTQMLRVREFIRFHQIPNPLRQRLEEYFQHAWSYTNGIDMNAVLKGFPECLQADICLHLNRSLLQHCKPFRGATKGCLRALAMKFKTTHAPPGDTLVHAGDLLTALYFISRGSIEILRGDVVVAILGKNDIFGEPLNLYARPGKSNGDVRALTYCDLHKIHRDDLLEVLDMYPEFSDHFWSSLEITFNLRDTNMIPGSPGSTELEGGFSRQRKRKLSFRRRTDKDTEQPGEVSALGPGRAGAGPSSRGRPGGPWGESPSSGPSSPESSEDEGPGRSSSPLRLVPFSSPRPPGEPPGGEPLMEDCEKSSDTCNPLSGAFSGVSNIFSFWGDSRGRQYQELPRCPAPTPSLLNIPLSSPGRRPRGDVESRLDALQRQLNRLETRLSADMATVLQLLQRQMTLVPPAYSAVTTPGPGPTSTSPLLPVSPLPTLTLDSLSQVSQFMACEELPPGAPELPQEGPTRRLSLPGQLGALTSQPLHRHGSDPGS", "assay": "Inhibition of hERG", "format": "toxicity"}, "[37]": {"assay": "Oral bioavailability in ICR mouse at 2 mg/kg", "format": "ADME, organism-based", "conditions": "in vivo"}, "[38]": {"assay": "Cmax in Balb/c mouse at 10 mg/kg, po", "format": "ADME, organism-based", "conditions": "in vivo"}, "[39]": {"assay": "Half life in human liver microsomes", "format": "ADME, Microsome"}, "cells": {"assay": "cells", "conditions": "Homo sapiens, OVCAR-3, 96 h", "description": "Antiproliferative activity against KIF18A siRNA sensitive human OVCAR-3 cells assessed as decrease in nuclei number measured after 4 days incubation by Hoechst 33342 DNA dye based nuclear count assay (NCA)"}, "[40]": {"assay": "Toxicity in nude Balc/c mouse xenografted with human OVCAR-3 cells assessed as change in body weight at 10 to 30 mg/kg, po measured after 21 days", "format": "organism-based", "conditions": "in vivo, 504 h, dose 10-30 mg/kg, time 21 day"}, "[41]": {"assay": "AUClast in Sprague-Dawley rat at 2 mg/kg, po and 1 mg/kg, iv", "format": "ADME, organism-based", "conditions": "in vivo"}, "[42]": {"assay": "Cmax in Balb/c mouse at 30 mg/kg, po", "format": "ADME, organism-based", "conditions": "in vivo"}, "NUGC-3": {"test_system": "NUGC-3", "assay": "Antiproliferative activity against human NUGC-3 cells assessed as chemiluminescence measured after 4 days incubation by Celltiter Glo assay", "conditions": "NUGC-3, 96 h"}, "[43]": {"assay": "Cmax in Beagle dog at 2 mg/kg, po and 1 mg/kg, iv", "format": "ADME, organism-based, Canis lupus familiaris", "conditions": "in vivo"}},
  "data": [
    {"smiles": "Cc1cc(NC(=O)c2ccc(NS(=O)(=O)CCO)cc2C2=CCC3(CC2)CC3)nc(N2CCC(F)(F)CC2)c1", "values": [
      {"measurement": "bioavailability", "setting": "[1]", "value": 76.9, "unit": "%"},
      {"measurement": "Cmax", "setting": "[2]", "value": 552, "unit": "ng/mL"},
      {"measurement": "half-life", "setting": "[3]", "value": 3.38, "unit": "h"},
      {"measurement": "IC50", "setting": "NCI-N87", "value": 8.61, "unit": "µM"},
      {"measurement": "Papp B→A", "setting": "[4]", "value": 0.49, "unit": "×10⁻⁶ cm/s"},
      {"measurement": "half-life", "setting": "[5]", "value": 6.38, "unit": "h"},
      {"measurement": "Cmax", "setting": "[6]", "value": 478, "unit": "ng/mL"},
      {"measurement": "Cmax", "setting": "[7]", "value": 393, "unit": "ng/mL"},
      {"measurement": "fraction unbound", "setting": "[8]", "value": 0.0008},
      {"measurement": "Activity", "setting": "OVCAR-3 [9]", "value": "Tde"},
      {"measurement": "fraction unbound", "setting": "[10]", "value": 0.0007},
      {"measurement": "bioavailability", "setting": "[11]", "value": 73, "unit": "%"},
      {"measurement": "IC50", "setting": "Cytochrome P450 3A4 [12]", "value": 23, "unit": "µM"},
      {"measurement": "AUC", "setting": "[13]", "value": 27700, "unit": "ng·h/mL"},
      {"measurement": "AUC", "setting": "[14]", "value": 54400, "unit": "ng·h/mL"},
      {"measurement": "IC50", "setting": "Cytochrome P450 3A4 [15]", "value": 22.4, "unit": "µM"},
      {"measurement": "half-life", "setting": "[16]", "value": 2.21, "unit": "h"},
      {"measurement": "solubility", "setting": "[17]", "value": 18.5, "unit": "µM"},
      {"measurement": "fraction unbound", "setting": "[18]", "value": 0.0004},
      {"measurement": "IC50", "setting": "BXPC-3", "value": 8.61, "unit": "µM"},
      {"measurement": "half-life", "setting": "[19]", "value": 0.203, "unit": "h"},
      {"measurement": "half-life", "setting": "[20]", "value": 4.6, "unit": "h"},
      {"measurement": "bioavailability", "setting": "[21]", "value": 40.2, "unit": "%"},
      {"measurement": "AUC", "setting": "[22]", "value": 11500, "unit": "ng·h/mL"},
      {"measurement": "half-life", "setting": "[23]", "value": 2.7, "unit": "h"},
      {"measurement": "AUC", "setting": "[24]", "value": 3340, "unit": "ng·h/mL"},
      {"measurement": "fraction unbound", "setting": "[25]", "value": 0.0023},
      {"measurement": "half-life", "setting": "[26]", "value": 4.5, "unit": "h"},
      {"measurement": "half-life", "setting": "[27]", "value": 1.47, "unit": "h"},
      {"measurement": "solubility", "setting": "[28]", "value": 43.6, "unit": "µM"},
      {"measurement": "fraction unbound", "setting": "[29]", "value": 0.0011},
      {"measurement": "Papp A→B", "setting": "[30]", "value": "< 0.01", "unit": "×10⁻⁶ cm/s"},
      {"measurement": "IC50", "setting": "HCC1954", "value": 0.014, "unit": "µM"},
      {"measurement": "half-life", "setting": "[31]", "value": 1.03, "unit": "h"},
      {"measurement": "solubility", "setting": "[32]", "value": 3.3, "unit": "µM"},
      {"measurement": "half-life", "setting": "[33]", "value": 7.6, "unit": "h"},
      {"measurement": "AUC", "setting": "[34]", "value": 2850, "unit": "ng·h/mL"},
      {"measurement": "inhibition in vivo at 30 mg/kg", "setting": "OVCAR-3 [35]", "value": 113, "unit": "%"},
      {"measurement": "IC50", "setting": "[36]", "value": "> 30", "unit": "µM"},
      {"measurement": "bioavailability", "setting": "[37]", "value": 68.2, "unit": "%"},
      {"measurement": "Cmax", "setting": "[38]", "value": 2160, "unit": "ng/mL"},
      {"measurement": "half-life", "setting": "[39]", "value": 0.38, "unit": "h"},
      {"measurement": "EC50", "setting": "cells", "value": 0.0647, "unit": "µM"},
      {"measurement": "Activity", "setting": "[40]", "value": "Non-Toxic"},
      {"measurement": "AUC(0-t)", "setting": "[41]", "value": 5840, "unit": "ng·h/mL"},
      {"measurement": "Cmax", "setting": "[42]", "value": 4040, "unit": "ng/mL"},
      {"measurement": "IC50", "setting": "NUGC-3", "value": 0.016, "unit": "µM"},
      {"measurement": "Cmax", "setting": "[43]", "value": 1150, "unit": "ng/mL"}
    ]}
  ]
}
